# Results: the supplement of paper PMC10307832
# Compound: Cn1c(=O)n(-c2ccc(C(C)(C)C#N)cc2)c2c3cc(-c4cnc5ccccc5c4)ccc3ncc21 [Dactolisib] + C[C@@H](Oc1cc(-c2cnn(C3CCNCC3)c2)cnc1N)c1c(Cl)ccc(F)c1Cl [Crizotinib] (partner 1 µM)
# Assay: relative viability (nuclei count vs DMSO), 5 days (fraction); higher = more cells survive
# Settings: first compound 0.002 µM
# In short: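 After 5 days of treatment, lung cancer cells in 1536-well plates were fixed and stained in a single step (final 0.05% Triton X-100, 1% formaldehyde, 1 ug/ml Hoechst) and their nuclei counted on 4× images. Treatment had been applied by pin tool the day after seeding as one drug alone or as a fixed anchor-drug dose with five library-drug doses (not always all listed) in √10 steps. Relative viability is the nuclei count of treated wells divided by that of vehicle wells, and values are medians of duplicate plates.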
row,Cell Line,relative viability
1,NCI-H1650,0.832
2,EBC-1,0.226
3,NCI-H1703,0.581
4,NCI-H1993,0.84
5,SK-LU-1,0.912
6,NCI-H838,0.798
7,LCLC-103H,1.03
8,NCI-H520,0.813
9,NCI-H2126,1.07
10,EMC-BAC-2,0.834
11,NCI-H2085,0.904
12,Calu-6,0.891
13,HCC-366,0.409
14,NCI-H1666,1.22
15,NCI-H596,0.974
16,LK-2,0.209
17,NCI-H2087,0.952

row,Cell Line,relative viability
1,SK-MES-1,1.14
2,H3255,0.974
3,COR-L23,0.787
4,COR-L 105,0.85
5,IA-LM,0.903
6,LOU-NH91,0.718
7,ChaGo-K-1,1.06
8,NCI-H2170,1.2
9,A549,0.855
10,NCI-H1299,0.941
11,CAL-12T,0.624
12,NCI-H2228,0.601
13,NCI-H1563,0.839
14,NCI-H1944,1.18
15,ABC-1,0.632
16,NCI-H358,0.702

# Same assay, conditions: first compound 0.006325 µM
row,Cell Line,relative viability
1,NCI-H727,0.671
2,NCI-H1650,0.944
3,EBC-1,0.181
4,NCI-H1703,0.49
5,NCI-H1993,0.761
6,SK-LU-1,0.936
7,NCI-H838,0.586
8,LCLC-103H,0.985
9,NCI-H520,0.658
10,NCI-H2126,1.03
11,EMC-BAC-2,0.718
12,NCI-H2085,0.763
13,Calu-6,0.766
14,HCC-366,0.574
15,NCI-H1666,0.884
16,NCI-H596,0.874
17,LK-2,0.244

row,Cell Line,relative viability
1,NCI-H2087,0.85
2,SK-MES-1,0.989
3,H3255,0.813
4,COR-L23,0.604
5,COR-L 105,0.874
6,IA-LM,0.561
7,LOU-NH91,0.715
8,ChaGo-K-1,1.03
9,NCI-H2170,1.17
10,A549,0.653
11,NCI-H1299,0.964
12,CAL-12T,0.661
13,NCI-H2228,0.283
14,NCI-H1563,0.789
15,NCI-H1944,1.06
16,ABC-1,0.97
17,NCI-H358,0.705

# Same assay, conditions: first compound 0.02 µM
row,Cell Line,relative viability
1,NCI-H727,0.666
2,NCI-H1650,0.718
3,EBC-1,0.208
4,NCI-H1703,0.373
5,NCI-H1993,0.66
6,SK-LU-1,0.681
7,NCI-H838,0.534
8,LCLC-103H,1.08
9,NCI-H520,0.539
10,NCI-H2126,0.98
11,EMC-BAC-2,0.708
12,NCI-H2085,0.668
13,Calu-6,0.702
14,HCC-366,0.531
15,NCI-H1666,0.876
16,NCI-H596,0.742
17,LK-2,0.266

row,Cell Line,relative viability
1,NCI-H2087,1.04
2,SK-MES-1,0.986
3,H3255,0.912
4,COR-L23,0.619
5,COR-L 105,0.561
6,IA-LM,0.539
7,LOU-NH91,0.698
8,ChaGo-K-1,1.1
9,NCI-H2170,0.832
10,A549,0.569
11,NCI-H1299,0.997
12,CAL-12T,0.425
13,NCI-H2228,0.297
14,NCI-H1563,0.76
15,NCI-H1944,1.03
16,ABC-1,0.908
17,NCI-H358,0.738

# Same assay, conditions: first compound 0.06325 µM
row,Cell Line,relative viability
1,NCI-H727,0.354
2,NCI-H1650,0.823
3,EBC-1,0.198
4,NCI-H1703,0.35
5,NCI-H1993,0.594
6,SK-LU-1,0.455
7,NCI-H838,0.275
8,LCLC-103H,0.675
9,NCI-H520,0.207
10,NCI-H2126,0.713
11,EMC-BAC-2,0.565
12,NCI-H2085,0.523
13,Calu-6,0.462
14,HCC-366,0.302
15,NCI-H1666,0.637
16,NCI-H596,0.595
17,LK-2,0.213

row,Cell Line,relative viability
1,NCI-H2087,0.63
2,SK-MES-1,0.632
3,H3255,0.556
4,COR-L23,0.283
5,COR-L 105,0.645
6,IA-LM,0.162
7,LOU-NH91,0.593
8,ChaGo-K-1,1.12
9,NCI-H2170,0.677
10,A549,0.162
11,NCI-H1299,0.76
12,CAL-12T,0.216
13,NCI-H2228,0.252
14,NCI-H1563,0.62
15,NCI-H1944,0.46
16,ABC-1,0.765
17,NCI-H358,0.391

# Same assay, conditions: first compound 0.2 µM
row,Cell Line,relative viability
1,NCI-H727,0.374
2,NCI-H1650,0.559
3,EBC-1,0.2
4,NCI-H1703,0.18
5,NCI-H1993,0.585
6,SK-LU-1,0.352
7,NCI-H838,0.216
8,LCLC-103H,0.461
9,NCI-H520,0.174
10,NCI-H2126,0.537
11,EMC-BAC-2,0.34
12,NCI-H2085,0.305
13,Calu-6,0.325
14,HCC-366,0.168
15,NCI-H1666,0.436
16,NCI-H596,0.395
17,LK-2,0.216
18,NCI-H2087,0.785
19,SK-MES-1,0.567
